Laboratory results reported in patent publication US20230348454A1, “COMPOUNDS AS MODULATORS OF BIS-PHOSPHOGLYCERATE MUTASE FOR THE TREATMENT OF SICKLE CELL DISEASE” (Genzyme Corporation, priority 2020, published 2023).
Read-outs that look alike come from different tables or passages of the source.

Target: T1, hBPGM (Homo sapiens, UniProt P07738)
T1 sequence (P07738 1-259): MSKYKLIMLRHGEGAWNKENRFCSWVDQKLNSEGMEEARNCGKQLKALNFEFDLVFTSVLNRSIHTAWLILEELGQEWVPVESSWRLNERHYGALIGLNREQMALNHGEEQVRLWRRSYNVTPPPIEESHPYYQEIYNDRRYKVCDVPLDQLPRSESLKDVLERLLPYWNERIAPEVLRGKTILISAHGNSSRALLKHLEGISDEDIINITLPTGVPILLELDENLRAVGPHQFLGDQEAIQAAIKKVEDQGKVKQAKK
Assay: BPGM synthase assay
Type: biochemical
Method: The following materials were used in this assay: deionized water; Bisphosphoglycerate mutase (BPGM; Standard Buffer: 50 mM Tris, 0.01% Tween 20, pH 7.4); BPGM Reaction Buffer (50 mM Tris, 0.01% Tween 20, 3.23 mM KH2PO4, pH 7.4); dithiothreitol (DTT; Stock solution: 100 mM in Standard Buffer); 384-Well Black Assay Plate (Corning, P/N 3575); DMSO; BPGM Stock Solution (500 nM in BPGM Standard Buffer); Glyceraldehyde 3-phosphate dehydrogenase (GAPDH; Stock Solution: 40 U/mL in 20 mM Tris-HCL Buffer with 20% Glycerol, 1 mM EDTA, 1 mM DTT); Glyceraldehyde 3-phosphate (GAP; Stock Solution: 20 mM in BPGM Standard Buffer); 3-PG Stock Solution (500 μM in BPGM Standard Buffer); Nicotinamide adenine dinucleotide (NAD; Stock Solution: 50 mM in BPGM Standard Buffer); Koningic Acid (1 mM Stock in DMSO); Resazurin Stock Solution (10 mM in DMSO); Diaphorase Stock Solution (40 U/mL in BPGM Standard Buffer); DTT Reaction Buffer (1 mM DTT in BPGM Reaction Buffer); Enzyme Solution (5 nM BPGM, 0.4 U/mL GAPDH in DTT Reaction Buffer); GAPDH Solution (0.4 U/mL GAPDH in DTT Reaction Buffer); Substrate Solution (2 mM NAD, 20 μM 3PG, 800 μM GAP in DTT Reaction Buffer); and Resazurin Solution (5 U/mL Diaphorase, 500 μM Resazurin in BPGM Standard Buffer).
To the assay plate was added Enzyme Solution (20 uL) to columns 2-22 and 24 of the assay plate. To columns 1 and 23 was added GAPDH Solution (20 uL). A separate compound plate was prepared at the desired concentrations and all wells were normalized with 5% DMSO. The compound plate was incubated for 30 minutes at RT. Next, the substrate solution (20 μL) was dispensed to all reaction wells and the plate was incubated for 60 minutes at RT. Koningic acid (1 μL) was added and the plate was incubated for 10 minutes at RT. During this time period, the NADH fluorescence was read at ex: 360/em: 460. Next, Resazurin Solution (10 μL) was added to all reaction wells and the plate was incubated for 30 minutes at RT. The resorufin fluorescence was then read at ex:544/em:590.

[1] = Table 6, read-out: huBPGM: synthase Enzyme IC50

Row | SMILES | IC50 [1] [nM] | IC50 (Table 3, read-out: hBPGM Synthase IC50) [nM]
1 | Cc1nc(CNc2ncccn2)sc1-c1csc(-c2cc(F)c3[nH]nnc3c2F)n1 [Example 51] | 280 | –
2 | Cc1nc(CNC(=O)c2cnn(C)c2)sc1-c1csc(-c2cc(F)c(O)c(F)c2F)n1 [Example 113] | 530 | –
3 | Cc1nc(COc2ncccn2)sc1-c1ccnc(-c2cc(O)c(C#N)c(F)c2)c1 [Example 24] | 250 | –
4 | Cc1nc(COc2ncccn2)sc1-c1nc(-c2cc(F)c(O)c(C#N)c2)cs1 [Example 72] | 510 | –
5 | Cc1nc(CNC(=O)c2ccn(C)n2)sc1-c1csc(-c2cc(F)c(O)c(F)c2F)n1 [Example 106] | 330 | –
6 | Cc1nc(CNC(=O)c2cccnn2)sc1-c1nc(-c2cc(F)c3nn[nH]c3c2F)cs1 [Example 43] | 14 | –
7 | Cc1nc(COc2nccc(C(=O)O)n2)sc1-c1cccc(-c2cc(F)c3nn[nH]c3c2)n1 [Example 118] | 28 | –
8 | Cc1nc(C(=O)NC2CCC(O)CC2)sc1-c1cccc(-c2cc(F)c3[nH]nnc3c2F)n1 (stereo not drawn) [Example 217] | 120 | –
9 | Cc1nc(COC(=O)N2CCC(O)C2)sc1-c1cccc(-c2cc(F)c3nn[nH]c3c2F)c1 (stereo not drawn) [Example 62] | 350 | –
10 | Cc1nc(COC(C)(C)C)sc1-c1cccc(-c2cc(F)c3nn[nH]c3c2F)n1 [Example 235] | 130 | –
11 | Cc1nc(COc2ncccn2)sc1-c1cccc(-c2ccc3[nH]c(=O)oc3c2)n1 [Example 117] | > 25000 | –
12 | Cc1nc(COc2ccccn2)sc1-c1cccc(-c2cc(F)c(O)c(F)c2)n1 [Example 199] | 6500 | –
13 | Cc1nc(COC(C)C)sc1-c1cccc(-c2cc(F)c3nn[nH]c3c2F)n1 [Example 236] | 110 | –
14 | Cc1nc(COCC(=O)N2CCNCC2)sc1-c1csc(-c2cc(F)c(O)c(F)c2F)n1 [Example 115] | 4400 | –
15 | Cc1nc(COC(=O)N(C)CCN(C)C)sc1-c1cccc(-c2cc(F)c(O)c(F)c2F)n1 [Example 36] | 1300 | –
16 | Cc1nc(CN(C)CC(C)(C)O)sc1-c1cccc(-c2cc(F)c3nn[nH]c3c2F)n1 [Example 225] | 210 | –
17 | Cc1nc(COc2ncccn2)sc1-c1cccc(Nc2ccc3[nH]nnc3c2)n1 [Example 229] | > 25000 | –
18 | Cc1nc(C(=O)N2CCC(O)C2)sc1-c1cccc(-c2cc(F)c3[nH]nnc3c2F)n1 (stereo not drawn) [Example 25] | 4400 | –
19 | CC(=O)NCc1nc(C)c(-c2cccc(-c3cc(F)c4nn[nH]c4c3F)n2)s1 [Example 54] | 91 | –

Row | SMILES | IC50 [1] [nM] | IC50 (Table 3, read-out: hBPGM Synthase IC50) [nM]
20 | Cc1nc(COCC(C)(C)O)sc1-c1nc(-c2cc(F)c3nn[nH]c3c2F)cs1 [Example 224] | 30 | –
21 | Cc1nc(C)c(-c2cnn(-c3cc(F)c4[nH]nnc4c3F)c2)s1 [Example 37] | 13000 | –
22 | Cc1nc(COc2ncccn2)sc1-c1nc(-c2cc(O)c(C#N)c(F)c2)cs1 [Example 71] | 300 | –
23 | Cc1nc(COCC(=O)N2CCC(O)C2)sc1-c1csc(-c2cc(F)c(O)c(F)c2F)n1 (stereo not drawn) [Example 124] | 6300 | –
24 | Cc1nc(COc2ncccn2)sc1-c1cccc(-c2cc(F)c(O)c(C#N)c2)n1 [compound 12] | 260 | 256
25 | Cc1nc(COCC(C)O)sc1-c1cccc(-c2cc(F)c3nn[nH]c3c2F)n1 (stereo not drawn) [Example 237] | 22 | –
26 | Cc1nc(COc2ncccn2)sc1-c1ccnc(-c2cc(F)c3nn[nH]c3c2F)n1 [Example 220] | 27 | –
27 | COC(=O)NCc1nc(C)c(-c2csc(-c3cnc(O)c(F)c3)n2)s1 [Example 200] | 12000 | –
28 | Cc1nc(COc2cccnn2)sc1-c1cccc(-c2cc(F)c3nn[nH]c3c2F)n1 [Example 88] | 24 | –
29 | Cc1nc(CNC(=O)N(C)C)sc1-c1cccc(-c2cc(F)c(O)c(F)c2F)n1 [Example 28] | 1600 | –
30 | Cc1nc(COC(=O)N2CC(O)C2)sc1-c1cccc(-c2cc(F)c3nn[nH]c3c2F)n1 [Example 59] | 20 | –
31 | Cc1nc(CNC(=O)C2CN(C)C2)sc1-c1csc(-c2cc(F)c(O)c(F)c2F)n1 [Example 83] | > 25000 | –
32 | COC(=O)NCc1nc(C)c(-c2csc(-c3cc(O)c(S(N)(=O)=O)cc3F)n2)s1 [Example 202] | > 25000 | –
33 | Cc1nc(CNC(=O)C(C)(C)C)sc1-c1csc(-c2cc(F)c(O)c(F)c2F)n1 [Example 111] | 570 | –
34 | Cc1nc(COCC(C)(C)O)sc1-c1nc(-c2cc(F)c3nn[nH]c3c2)cs1 [Example 226] | 82 | –
35 | Cc1nc(COCC(C)(C)C)sc1-c1cccc(-c2cc(F)c3nn[nH]c3c2F)n1 [Example 234] | 1300 | –
36 | Cc1nc(C)c(CCOc2cc(F)c3nn[nH]c3c2F)s1 [Example 222] | > 25000 | –
37 | Cc1nc(COc2ccccn2)sc1-c1cccc(-c2cc(F)c3nn[nH]c3c2F)n1 [Example 110] | 160 | –
38 | Cc1nc(COC(=O)N2CCC(N)C2)sc1-c1cccc(-c2cc(F)c(O)c(F)c2F)n1 (stereo not drawn) [Example 29] | 5700 | –

Second part, the compound after the results:

Row | IC50 [1] [nM] | IC50 (Table 3, read-out: hBPGM Synthase IC50) [nM] | SMILES
39 | 55 | – | Cc1nc(COC(C)C(=O)N(C)C)sc1-c1cccc(-c2cc(F)c3nn[nH]c3c2F)n1 (stereo not drawn) [Example 60]
40 | 200 | – | Cc1nc(COc2ncccn2)sc1-c1csc(-c2cc(F)c(O)c(F)c2F)n1 [Example 70]
41 | > 25000 | – | Cc1nc(COc2ncccn2)sc1-c1cccc(-c2ccc([N+](=O)[O-])c(F)c2)n1 [Example 134]
42 | 220 | – | Cc1nc(CNC(=O)N2CCC(O)C2)sc1-c1cccc(-c2cc(F)c3nn[nH]c3c2F)n1 (stereo not drawn) [Example 61]
43 | 3200 | – | Cc1nc(CNC(=O)N(C)C)sc1-c1csc(-c2cc(F)c3[nH]nnc3c2)n1 [Example 107]
44 | 220 | – | Cc1nc(COc2ncccn2)sc1-c1cccc(-c2ccc(C#N)c(O)c2F)n1 [Example 105]
45 | > 25000 | – | Cc1nc(COc2ncccn2)sc1-c1cccc(-c2nnn[nH]2)n1 [Example 73]
46 | 110 | – | Cc1nc(CN2CCCC2=O)sc1-c1cccc(-c2cc(F)c3nn[nH]c3c2F)n1 [Example 26]
47 | > 25000 | – | COC(=O)NCc1nc(C)c(-c2csc(-c3ccc(C4SC(=O)NC4=O)cc3)n2)s1 (stereo not drawn) [Example 204]
48 | > 25000 | – | Cc1nc(COc2ncccn2)sc1-c1cccc(-c2ccc(-c3n[nH]c(=O)o3)cc2)n1 [Example 161]
49 | 49 | – | Cc1nc(COCC2(O)CC2)sc1-c1cccc(-c2cc(F)c3nn[nH]c3c2F)n1 [Example 238]
50 | 2900 | – | Cc1nc(C)c(-c2csc(-c3cc(F)c(O)c(F)c3F)n2)s1 [Example 119]
51 | 380 | – | Cc1nc(CO)sc1-c1csc(-c2cc(F)c3[nH]nnc3c2F)n1 [Example 87]
52 | 2300 | – | Cc1nc(CNC(=O)N2CCC(O)C2)sc1-c1csc(-c2cc(F)c(O)c(F)c2F)n1 (stereo not drawn) [Example 92]
53 | 250 | – | COC(=O)NCc1nc(C)c(-c2csc(-c3cc(O)c(-c4nnn[nH]4)cc3F)c2)s1 [Example 184]
54 | 640 | – | Cc1nc(CO)sc1-c1cccc(-c2cc(F)c3nn[nH]c3c2F)n1 [Example 91]
55 | 280 | – | Cc1nc(CNc2cccnn2)sc1-c1csc(-c2cc(F)c(O)c(F)c2F)n1 [Example 89]
56 | 1200 | – | Cc1nc(C)c(-c2csc(-c3cc(F)c4[nH]nnc4c3)n2)s1 [Example 114]
57 | 200 | – | COCc1nc(C)c(-c2cccc(-c3cc(F)c4nn[nH]c4c3F)n2)s1 [Example 68]
58 | 2800 | – | Cc1nc(CNC(=O)N2CCC(O)C2)sc1-c1csc(-c2cc(F)c3[nH]nnc3c2F)n1 (stereo not drawn) [Example 80]
59 | 3300 | – | Cc1nc(COc2ccccn2)sc1-c1cccc(-c2cc(F)c(O)c(C#N)c2)n1 [Example 121]
